Values joined by “and” are separate entries in the source; they are usually repeats but may differ in a detail not shown here. Identical values can stand only once.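 Five compound concentrations were applied to cells in 96-well plates for 48 hours; endpoints were derived by simple linear interpolation of the resulting dose-response curve. GI50: concentration for 50% inhibition of growth. TGI is the concentration that stops growth completely.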
Legend:
Test in all cases: growth of human tumour cells (NCI), 48 h
[1] = tested on: SR leukemia
[2] = tested on: TK-10 renal
[3] = tested on: A498 renal
[4] = tested on: HOP-62 NSCLC
[5] = tested on: BT-549 breast
[6] = tested on: ACHN renal
[7] = tested on: U251 CNS
[8] = tested on: KM12 colon
[9] = tested on: OVCAR-4 ovarian
[10] = tested on: PC-3 prostate

SMILES	TGI [1] [µM]	TGI [2] [µM]	TGI [3]	TGI [4] [µM]	TGI [5] [µM]	TGI [6] [µM]	TGI [7] [µM]	TGI [8] [µM]	TGI [9] [µM]	TGI [10] [µM]	GI50 [1]	GI50 [2] [µM]	GI50 [3]	GI50 [5]	GI50 [6] [µM]	GI50 [7]	GI50 [10]	GI50 [4]	GI50 [8]	GI50 [9]
O=c1c2c([nH]c3nccn13)CCC2	> 10	> 10	8.91 µM	> 10	> 10	> 10	> 10	> 10	> 10	> 10	–	–	–	–	–	–	–	–	–	–
C=C(C)[C@@H]1CCC=C2CC[C@]3(C)[C@H](CC[C@@H]4[C@@]5(C)CCCNC(C)(C)[C@@H]5CC[C@]43C)[C@H]21	3.65	4.98	26.9 µM	–	20.7	3.25	3.12	–	–	6.21	1.25 µM	2.02	11.7 µM	4.5 µM	1.85	1.69 µM	2.31 µM	–	–	–
O=[N+]([O-])c1cc[n+]([O-])c2ccccc12	> 100	0.707	0.471 µM	1.13	0.728	0.512	1.3	0.332	3.17	2.36	0.0245 µM	0.187	0.176 µM	0.2 µM	0.142	0.298 µM	0.222 µM	0.221 µM	0.0832 µM	1.78 µM
COc1ccc(/C=C(/c2ccccc2)[N+](=O)[O-])c(OC)c1	16.2	4.18	2.99 µM	4.77	2.89	2.81	3.15	3.31	2.92	2.79	0.641 µM	2.24	1.55 µM	1.48 µM	1.49	1.48 µM	1.32 µM	2.42 µM	1.72 µM	1.55 µM
Cc1ccc(S(=O)(=O)Oc2ccc3c4c(c(=O)oc3c2)CCCCCC4)cc1	> 100	> 100	> 100 µM	> 100	> 100	> 100	> 100	> 100	> 100	> 100	5.66 µM	> 100	4.43 µM	> 100 µM	> 100	> 100 µM	5.97 µM	> 100 µM	4.78 µM	> 100 µM
COc1c(C(C)=O)c(OCCCCOc2c(C(C)=O)c(OC)c3ccoc3c2OC)c(OC)c2occc12	7.72	> 100	> 100 µM	> 100	5.22	> 100	> 100	> 100	> 100	> 20.6	0.258 µM	> 23.4	> 100 µM	1.61 µM	3.6	> 28.1 µM	1.69 µM	> 100 µM	3.11 µM	3.39 µM
CCOc1ccc2c(-c3ccnc(Nc4cc(OC)cc(C(F)(F)F)c4)n3)cnn2n1	> 25	> 25	> 25 µM	> 25	> 25	> 25	> 25	> 25	> 25	> 25	1.32 µM	> 16.3	> 25 µM	18.2 µM	> 25	> 13 µM	> 15.5 µM	> 25 µM	3.58 µM	> 15.8 µM
Cc1cn2c(/C=C3/C(=O)Nc4c3ccc3ccccc43)c(C(F)(F)F)nc2s1	26.4	> 100	> 100 µM	93.1	> 100	> 100	> 100	38.5	> 100	> 100	0.238 µM	12.6	1.7 µM	1.18 µM	6.24	2.12 µM	1.24 µM	0.586 µM	0.493 µM	3.63 µM
Fc1ccc(-c2ncn(C3CCNCC3)c2-c2ccnc(Oc3ccc4c(c3)OCO4)n2)cc1	> 25	> 25	> 25 µM	> 25	> 25	> 25	> 25	> 25	> 25	> 25	13.6 µM	> 25	16 µM	> 21.3 µM	8.82	15.3 µM	> 25 µM	> 25 µM	> 25 µM	19.7 µM
CN(C)C(=O)Nc1nc2cc(Cl)c(Cl)cc2[nH]1	–	> 100	–	> 50.7	> 100	> 100	> 51.1	> 35.7	> 100	> 51.8	0.222 µM	4.71	0.487 µM	2.79 µM	3.11	0.636 µM	0.566 µM	3.84 µM	0.404 µM	1.61 µM
O=C(NCCN1CCOCC1)OCc1nc2nc(Cl)nc(N3CCOCC3)c2[nH]1	> 100	> 100	6.66 µM	> 100	> 100	> 100	> 100	> 100	> 100	> 100	0.728 µM	> 100	1.68 µM	3.48 µM	0.901	4.09 µM	3.38 µM	4.93 µM	1.96 µM	9.69 µM
COc1ccc2c(c1)nc(NNC(=O)c1cnccn1)c1cccn12	> 41.3	3.18	2.93 µM	3.33	3.62	1.4	2.86	9.64	2.3	4.85	0.24 µM	0.157	1.31 µM	0.917 µM	0.0906	0.132 µM	0.285 µM	0.0961 µM	0.245 µM	0.114 µM
COc1ccc2c(c1)[n+](=O)c(C(=O)c1cccs1)c(C(F)(F)F)n2[O-]	> 50	8.77	–	> 50	6.57	> 50	> 50	25.4	> 50	18.6	0.775 µM	1.07	–	1.3 µM	8.64	10.3 µM	2.42 µM	12.1 µM	3.96 µM	16.8 µM
O=S(=O)(NC1CCCCC1)c1ccc2c(c1)OCCOCCOCCOCCO2	> 100	> 100	> 100 µM	> 100	> 100	> 100	–	> 100	–	> 100	–	–	–	–	–	–	–	–	–	–
O=C(O)C[C@H](O)C[C@H](O)/C=C/c1c(C2CC2)nc2ccccc2c1-c1ccc(F)cc1	> 100	> 100	0.908 µM and 0.226 µM	> 100	> 100	–	> 100	> 100	> 100	> 100	2.59 µM and 0.615 µM	–	0.202 µM and 0.036 µM	18.1 µM and 4.11 µM	–	1.62 µM and 0.302 µM	0.508 µM and 0.423 µM	15 µM and 6.22 µM	34.2 µM and 24.8 µM	22.8 µM and 8.04 µM
Nc1ccn(C2CC(F)C(CO)O2)c(=O)n1 (stereo not given)	> 100	> 100	–	> 100	> 100	> 100	> 100	> 100	> 100	> 100	> 100 µM	> 100	–	> 100 µM	> 100	> 100 µM	> 100 µM	> 100 µM	> 100 µM	> 100 µM
OC1(c2ccccc2)C2CC=CC2C1(c1ccccc1)c1ccccc1 (stereo not given)	> 100	> 100	57 µM	> 100	> 100	> 100	> 100	> 100	–	> 100	–	–	–	–	–	–	–	–	–	–
Cc1ccc(/C=C/c2c(C(=O)/C=C/c3ccccc3)c(C)nc3ccccc23)cc1	5.67	–	3.23 µM	3.49	4.36	2.93	2.87	3.36	7.72	5.05	1.18 µM	–	1.75 µM	1.75 µM	1.59	1.5 µM	1.84 µM	1.74 µM	1.72 µM	2.19 µM
COc1ccc(-c2cc(=O)n(-c3nc4ccccc4[nH]3)[nH]2)cc1OC	> 100	–	8.72 µM	> 100	> 100	> 100	> 100	> 100	> 100	> 100	3.85 µM	–	2.33 µM	23.7 µM	5.72	4.2 µM	3.8 µM	9.36 µM	8.56 µM	7.9 µM
COC(C)(C)[C@@H](O)[C@H](O)C[C@H](C)C1=C2CC[C@@H]3[C@@]4(C)CC[C@@H](OC(C)=O)C(C)(C)[C@@H]4C[C@@H](OC4OC(COC(C)=O)C(O)C(O)C4O)[C@@]3(C)[C@]2(C)CC1 (stereo not given in full)	14.3	–	27.6 µM	27.4	28.7	22.2	22.5	18.9	23.1	18.5	3.06 µM	–	14.2 µM	15.1 µM	10.4	–	5.68 µM	14.3 µM	3.55 µM	10.8 µM

From PubChem BioAssay (NCI)
